Key:
[1] = Resistance to hydrolysis giving the open form; assay type: physicochemical
[2] = test system: human keratinocytes; test: Inhibition of IL-8 secretion by human keratinocytes stimulated by IL-17 and TNF-α; assay type: cell-based; details: keratinocytes stimulated by IL-17 and TNF-α
[3] = test system: human lymphocytes; test: Inhibition of IL-2 secretion by human lymphocytes stimulated by CD2, CD3 and CD28; assay type: cell-based; details: lymphocytes stimulated by CD2, CD3 and CD28

Which “resistance to hydrolysis (enzymatic and spontaneous)” value [1] does the source give for CCCCCCCCCC(=O)CC(=O)N[C@H]1CCCC[C@@H]1O [I-2, N-[(1S,2S)-2-hydroxycyclohexyl]-3-oxo-dodecanamide] here?
Its value is “resistant to the hydrolysis giving an open form (both enzymatic and spontaneous)”.

What about the EC50 ([2]; Homo sapiens, Keratinocyte, read-out: relative EC50, inhibition of IL-8 secretion) of the same compound?
The EC50 was 111 nM.

And the “maximum inhibition as % of the inhibition obtained with the reference compound betamethasone” value ([2]; IL-8 secretion)?
Its value is 39%.

What about the EC50 ([3]; Homo sapiens, Lymphocyte, read-out: relative EC50, inhibition of IL-2 secretion) of the same compound?
The EC50 was 89.9 nM.

What about the “maximum inhibition as % of the inhibition obtained with the reference compound betamethasone” value ([3]; IL-2 secretion) of the same compound?
The value was 46%.

From patent publication US20220411397A1, “ANALOGUES OF N-ACYL-HOMOSERINE LACTONES AND PHARMACEUTICAL COMPOSITION COMPRISING SAME” (SORBONNE UNIVERSITE, priority 2019, published 2022)
